# Measurements published in patent US20250340557A1, “PYRIMIDINE DERIVATIVE” (ASKA PHARMACEUTICAL CO., LTD., priority 2022, published 2025).
# Target: T1, human mPGES-1 (Homo sapiens, UniProt O14684)
# T1 construct: made in house; host or cells: COS-1 cells (transient transfection; microsomal fraction used as enzyme)
# T1 sequence (O14684 1-152): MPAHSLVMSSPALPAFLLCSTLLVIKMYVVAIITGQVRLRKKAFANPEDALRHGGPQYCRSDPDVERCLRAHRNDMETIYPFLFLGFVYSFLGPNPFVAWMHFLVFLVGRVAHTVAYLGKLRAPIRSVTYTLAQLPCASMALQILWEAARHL
# Test: Test for mPGES-1 inhibitory activity (microsomal enzyme, PGE2 EIA)
# Assay type: biochemical
# Settings: microsomes of COS-1 cells transfected with human mPGES-1 cDNA; PGH2 1 μM; 4° C., 4 minutes; PGE2 by EIA; read-out: h mPGES1 IC50
# How it was run: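 IC50 values were derived from EIA-quantified PGE2 after a 4 min, 4 °C reaction with PGH2 at 1 μM final, stopped with ferric chloride/citric acid. Beforehand, compound (2% DMSO final) sat 15 min at 4 °C with human mPGES-1 microsomes from transiently transfected COS-1 cells. Buffer was sodium phosphate pH 7.2 containing 2.5 mM reduced glutathione and 1 mM EDTA.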
row,Structure (SMILES),IC50 [nM]
1,"CC(C)CO[C@H]1C[C@@H](C(=O)NCc2ccc(C(F)(F)F)c(-c3nc(C(F)(F)F)cc(=O)[nH]3)c2F)C1 [Example 257, cis-N-{2-fluoro-3-[6-oxo-4-(trifluoromethyl)-1,6-dihydropyrimidin-2-yl]-4-(trifluoromethyl)benzyl}-3-isobutoxycyclobutane-1-carboxamide]",5.8
2,"O=C(NCc1ccc(C(F)(F)F)c(-c2nc(C(F)(F)F)cc(=O)[nH]2)c1F)N1CCC(Oc2ccc(Cl)c(Cl)c2)CC1 [Example 258, 4-(3,4-dichlorophenoxy)-N-{2-fluoro-3-[6-oxo-4-(trifluoromethyl)-1,6-dihydropyrimidin-2-yl]-4-(trifluoromethyl)benzyl}piperidine-1-carboxamide]",< 1
3,"O=c1cc(-c2ccc(C(F)(F)F)cn2)nc(-c2c(C(F)(F)F)ccc(CNS(=O)(=O)c3ccccc3C(F)(F)F)c2F)[nH]1 [Example 269, N-(2-fluoro-3-{6-oxo-4-[5-(trifluoromethyl)pyridin-2-yl]-1,6-dihydropyrimidin-2-yl}-4-(trifluoromethyl)benzyl)-2-(trifluoromethyl)benzenesulfonamide]",7.6
4,"O=c1cc(-c2ccc(C(F)(F)F)cn2)nc(-c2c(C(F)(F)F)ccc(CNS(=O)(=O)c3ccc(-c4ccccc4)cc3)c2F)[nH]1 [Example 271, N-(2-fluoro-3-{6-oxo-4-[5-(trifluoromethyl)pyridin-2-yl]-1,6-dihydropyrimidin-2-yl}-4-(trifluoromethyl)benzyl)-[1,1′-biphenyl]-4-sulfonamide]",76
5,"O=c1cc(C(F)(F)F)nc(-c2c(C(F)(F)F)ccc(CNS(=O)(=O)c3ccccc3C(F)(F)F)c2F)[nH]1 [Example 272, N-{2-fluoro-3-[6-oxo-4-(trifluoromethyl)-1,6-dihydropyrimidin-2-yl]-4-(trifluoromethyl)benzyl}-2-(trifluoromethyl)benzenesulfonamide]",33
6,"O=C(NCc1ccc(C(F)(F)F)c(-c2nc(C(F)(F)F)cc(=O)[nH]2)c1F)c1ccccc1C(F)(F)F [Example 273, N-{2-fluoro-3-[6-oxo-4-(trifluoromethyl)-1,6-dihydropyrimidin-2-yl]-4-(trifluoromethyl)benzyl}-2-(trifluoromethyl)benzamide]",8.4
7,"O=C(NCc1ccc(C(F)(F)F)c(-c2nc(C(F)(F)F)cc(=O)[nH]2)c1F)c1cccc(Cl)c1Cl [Example 274, 2,3-dichloro-N-{2-fluoro-3-[6-oxo-4-(trifluoromethyl)-1,6-dihydropyrimidin-2-yl]-4-(trifluoromethyl)benzyl}benzamide]",< 1
8,"O=C(Cc1ccc(C(F)(F)F)cc1)NCc1ccc(C(F)(F)F)c(-c2nc(C(F)(F)F)cc(=O)[nH]2)c1F [Example 283, N-{2-fluoro-3-[6-oxo-4-(trifluoromethyl)-1,6-dihydropyrimidin-2-yl]-4-(trifluoromethyl)benzyl}-2-[4-(trifluoromethyl)phenyl]acetamide]",1.5

# The next lines start with the values.
row,IC50 [nM],Structure (SMILES)
1,< 1,"O=C(NCc1ccc(C(F)(F)F)c(-c2nc(C(F)(F)F)cc(=O)[nH]2)c1F)N1CCC(Oc2ccc(C(F)(F)F)cc2)CC1 [Example 260, N-{2-fluoro-3-[6-oxo-4-(trifluoromethyl)-1,6-dihydropyrimidin-2-yl]-4-(trifluoromethyl)benzyl}-4-[4-(trifluoromethyl)phenoxy]piperidine-1-carboxamide]"
2,< 1,"O=C(NCc1ccc(C(F)(F)F)c(-c2nc(-c3ccc(C(F)(F)F)cn3)cc(=O)[nH]2)c1F)C1CC(OCc2ccccc2)C1 (centres unmarked) [Example 266, 3-(benzyloxy)-N-(2-fluoro-3-{6-oxo-4-[5-(trifluoromethyl)pyridin-2-yl]-1,6-dihydropyrimidin-2-yl}-4-(trifluoromethyl)benzyl)cyclobutane-1-carboxamide]"
3,< 1,"O=C(NCc1ccc(C(F)(F)F)c(-c2nc(-c3ccc(C(F)(F)F)cn3)cc(=O)[nH]2)c1F)C1CCN(c2ccc3nccn3n2)CC1 [Example 267, N-(2-fluoro-3-{6-oxo-4-[5-(trifluoromethyl)pyridin-2-yl]-1,6-dihydropyrimidin-2-yl}-4-(trifluoromethyl)benzyl)-1-(imidazo[1,2-b]pyridazin-6-yl)piperidine-4-carboxamide]"
4,0.94,"O=C(NCc1ccc(C(F)(F)F)c(-c2nc(C(F)(F)F)cc(=O)[nH]2)c1F)C1CCN(C(=O)Cc2ccc(F)cc2)CC1 [Example 275, N-{2-fluoro-3-[6-oxo-4-(trifluoromethyl)-1,6-dihydropyrimidin-2-yl]-4-(trifluoromethyl)benzyl}-1-[2-(4-fluorophenyl)acetyl]piperidine-4-carboxamide]"
5,24,"O=C(NCc1ccc(C(F)(F)F)c(-c2nc(C(F)(F)F)cc(=O)[nH]2)c1F)C1CN(C(=O)Cc2ccc(F)cc2)C1 [Example 276, N-{2-fluoro-3-[6-oxo-4-(trifluoromethyl)-1,6-dihydropyrimidin-2-yl]-4-(trifluoromethyl)benzyl}-1-[2-(4-fluorophenyl)acetyl]azetidine-3-carboxamide]"
6,35,"O=C(NCc1ccc(C(F)(F)F)c(-c2nc(C(F)(F)F)cc(=O)[nH]2)c1F)C1CCN(CCc2ccccc2)CC1 [Example 278, N-{2-fluoro-3-[6-oxo-4-(trifluoromethyl)-1,6-dihydropyrimidin-2-yl]-4-(trifluoromethyl)benzyl}-1-phenethylpiperidine-4-carboxamide]"
7,< 1,"O=c1cc(C(F)(F)F)nc(-c2c(C(F)(F)F)ccc(CNC(=O)[C@H]3CC[C@H](c4ccc(Cl)cc4)CC3)c2F)[nH]1 [Example 279, trans-4-(4-chlorophenyl)-N-{2-fluoro-3-[6-oxo-4-(trifluoromethyl)-1,6-dihydropyrimidin-2-yl]-4-(trifluoromethyl)benzyl}cyclohexane-1-carboxamide]"
8,< 1,"O=C(NCc1ccc(C(F)(F)F)c(-c2nc(C(F)(F)F)cc(=O)[nH]2)c1F)C1Cc2ccccc2C1 [Example 280, N-{2-fluoro-3-[6-oxo-4-(trifluoromethyl)-1,6-dihydropyrimidin-2-yl]-4-(trifluoromethyl)benzyl}-2,3-dihydro-1H-indene-2-carboxamide]"
9,45,"O=C(NCc1ccc(C(F)(F)F)c(-c2nc(C(F)(F)F)cc(=O)[nH]2)c1F)C1(c2ccc(Cl)cc2)CCCC1 [Example 281, 1-(4-chlorophenyl)-N-{2-fluoro-3-[6-oxo-4-(trifluoromethyl)-1,6-dihydropyrimidin-2-yl]-4-(trifluoromethyl)benzyl}cyclopentane-1-carboxamide]"
